For 25 compounds, inhibition and IC50 results are on record in US10144742B2 (Millennium Pharmaceuticals, Inc., priority 2014, dated 2018).

One test has as its system PC3 cells. As to the kind of experiment: PC3 growth inhibition (Cell-titer glo, 72 hours). Type of test: cell-based. As to conditions: Homo sapiens, PC-3, PC3 cells, 72 hours, Cell-titer glo, read-out: Percent Inhibition (PC3 growth inhibition); for inhibition at 1 µM: compound concentration 1 μM; for inhibition at 1.667 µM: compound concentration 1.667 μM. The procedure, abridged: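 Compounds in AIM serum-free medium were applied for 72 h at 37 °C, 5% CO2 to PC3 cells plated overnight from RPMI1640 culture. Luminescence after 10 min CellTiter-Glo, normalised to DMSO, gave % viability at 1 μM or 1.667 μM, or GI50/LD50.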

The next test has as its target hNAMPT protein (Homo sapiens (Human), UniProt P43490). As to the kind of experiment: NAMPT enzyme assay (TR-FRET/HTRF, BodiPY ligand, anti 6His-Tb). It counts as binding. To be noted: for IC50: NAMPT IC50 range class, read-out: IC50; for inhibition at 1 µM: read-out: Percent Inhibition. The procedure, abridged: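 Compound or DMSO was incubated for 1 h at room temperature, protected from light, with BodiPY ligand and hNAMPT labelled by terbium anti-6His antibody. The 520 nm to 486 nm emission ratio after 320 nm excitation gave inhibition versus vehicle, from which concentration-response curves yielded IC50.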
(Time-resolved FRET reads energy transfer from a long-lived donor to a nearby acceptor.)

Like-named read-outs stand apart in the source and are kept apart here. Where only a bound is given, the exact number is not on record here.

Chain of hNAMPT protein (P43490 whole entry): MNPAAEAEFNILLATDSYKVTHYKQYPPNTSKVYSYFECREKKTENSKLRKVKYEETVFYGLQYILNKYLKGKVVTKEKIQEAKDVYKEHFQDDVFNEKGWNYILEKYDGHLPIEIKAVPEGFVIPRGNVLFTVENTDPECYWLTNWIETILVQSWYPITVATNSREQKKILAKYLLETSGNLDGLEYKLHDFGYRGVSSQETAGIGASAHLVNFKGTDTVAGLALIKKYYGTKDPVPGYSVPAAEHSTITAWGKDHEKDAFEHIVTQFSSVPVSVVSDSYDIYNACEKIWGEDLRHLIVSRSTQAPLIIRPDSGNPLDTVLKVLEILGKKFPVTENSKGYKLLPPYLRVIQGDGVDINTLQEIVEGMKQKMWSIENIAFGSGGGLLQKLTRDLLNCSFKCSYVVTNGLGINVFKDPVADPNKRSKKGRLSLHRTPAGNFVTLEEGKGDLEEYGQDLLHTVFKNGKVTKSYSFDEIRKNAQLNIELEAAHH

As to `O=C(NCCCc1c[nH]cn1)c1ccc2nc(-c3ccc(F)cc3)c(-c3ccc(F)cc3)nc2c1` [Compound I-192, 2,3-bis(4-fluorophenyl)-N-[3-(1H-imidazol-4-yl)propyl]quinoxaline-6-carboxamide], the inhibition (as a rule, the drop in the measured response relative to a control, in per cent) at 1 µM with PC3 cells is -7%; on hNAMPT protein (compound concentration 1 μM) it was 78%. Also, the IC50 – broadly, the concentration at which inhibition is half-maximal – at hNAMPT protein lay in the range of 100 to 500 nM.

On to `O=C(NCCCc1cncnc1)c1ccc2nc(N3CCOCC3)c(-c3ccc(F)cc3)nc2c1` [Compound I-193, 3-(4-Fluorophenyl)-2-(morpholin-4-yl)-N-[3-(pyrimidin-5-yl)propyl]quinoxaline-6-carboxamide], for which, in the test with PC3 cells, the inhibition at 1.667 µM was above 99%. In addition, on hNAMPT protein, the IC50 lay in the range of 100 to 500 nM and the inhibition at 1 µM was found to be 73%.

As to `Cn1cccc1-c1nc2cc(C(=O)NCCCn3ccnc3)ccc2nc1-c1ccccc1` [Compound I-194, N-[3-(1H-imidazol-1-yl)propyl]-3-(1-methyl-1H-pyrrol-2-yl)-2-phenylquinoxaline-6-carboxamide], the inhibition at 1 µM in the test on PC3 cells was found to be 29%; at hNAMPT protein (compound concentration 1 μM) it was 30%. The IC50 at hNAMPT protein was in the range of 2000 to 10000 nM.

Regarding `O=C(NCCCc1ncc[nH]1)c1ccc2nc(N3CCCCC3)c(-c3cccs3)nc2c1` [Compound I-195, N-[3-(1H-imidazol-2-yl)propyl]-2-(piperidin-1-yl)-3-(2-thienyl)quinoxaline-6-carboxamide], in the test on PC3 cells, the inhibition at 1.667 µM amounted to 2%. At hNAMPT protein, the half-inhibitory concentration (IC50) is below 100 nM. In addition, the inhibition at 1 µM at hNAMPT protein (compound concentration 1 μM) was above 99%.

Turning to `COc1cccc(-c2nc3cc(C(=O)NCCc4cccnc4)ccc3nc2N2CCCCC2)c1` [Compound I-196, 3-(3-methoxyphenyl)-2-(piperidin-1-yl)-N-[2-(pyridin-3-yl)ethyl]quinoxaline-6-carboxamide], in the test with PC3 cells, the inhibition at 1.667 µM was found to be 2%. Also, the IC50 on hNAMPT protein is below 100 nM. In addition, the inhibition at 1 µM at hNAMPT protein (compound concentration 1 μM) amounted to 98%.

On to `COc1cccc(-c2nc3cc(C(=O)NCCCc4cccnc4)ccc3nc2N2CCCCC2)c1` [Compound I-197, 3-(3-methoxyphenyl)-2-(piperidin-1-yl)-N-[3-(pyridin-3-yl)propyl]quinoxaline-6-carboxamide], for which, in the test with PC3 cells, the inhibition at 1.667 µM was 2%. The half-maximal inhibitory concentration (IC50) at hNAMPT protein was below 100 nM. For the same compound, the inhibition at 1 µM on hNAMPT protein (compound concentration 1 μM) was above 99%.

Consider `O=C(NCCCc1ncc[nH]1)c1ccc2nc(N3CCCCC3)c(-c3ccc(Cl)cc3)nc2c1` [Compound I-198, 3-(4-chlorophenyl)-N-[3-(1H-imidazol-2-yl)propyl]-2-(piperidin-1-yl)quinoxaline-6-carboxamide], for which the inhibition at 1.667 µM with PC3 cells was 3%. Besides, on hNAMPT protein, the IC50 is below 100 nM. At hNAMPT protein (compound concentration 1 μM), the inhibition at 1 µM is above 99%.

As for `O=C(NCCCn1ccnc1)c1ccc2nc(N3CCC(N4CCOCC4)CC3)c(-c3ccccc3)nc2c1` [Compound I-199, N-[3-(1H-imidazol-1-yl)propyl]-2-[4-(morpholin-4-yl)piperidin-1-yl]-3-phenylquinoxaline-6-carboxamide], the figures for the inhibition at 1 µM with PC3 cells and on hNAMPT protein (compound concentration 1 μM) were 0% and 101%, respectively. The concentration for half-maximal inhibition (IC50) on hNAMPT protein was below 100 nM.

On to `Cn1cc2c(n1)CN(c1nc3ccc(C(=O)NCCCn4ccnc4)cc3nc1-c1ccccc1)CC2` [Compound I-200, N-[3-(1H-imidazol-1-yl)propyl]-2-(2-methyl-2,4,5,7-tetrahydro-6H-pyrazolo[3,4-c]pyridin-6-yl)-3-phenylquinoxaline-6-carboxamide], for which the inhibition at 1 µM with PC3 cells was -7%; at hNAMPT protein (compound concentration 1 μM) it was 85%. For the same compound, the IC50 at hNAMPT protein lay in the range of 100 to 500 nM.

Consider `O=C(NCCCn1ccnc1)c1ccc2nc(-c3cccnc3)c(-c3ccccc3)nc2c1` [Compound I-201, N-[3-(1H-imidazol-1-yl)propyl]-3-phenyl-2-(pyridin-3-yl)quinoxaline-6-carboxamide], for which the values for the inhibition at 1 µM with PC3 cells and at hNAMPT protein (compound concentration 1 μM) were -7% and 62%, respectively. In addition, the IC50 at hNAMPT protein is 500 to 1000 nM.

For the compound `O=C(NCCCc1ncc[nH]1)c1ccc2nc(C3=CCC(O)CC3)c(-c3cccs3)nc2c1` (stereo not drawn) [Compound I-202, 2-(4-Hydroxycyclohex-1-en-1-yl)-N-[3-(1H-imidazol-2-yl)propyl]-3-(2-thienyl)quinoxaline-6-carboxamide], the inhibition at 1.667 µM with PC3 cells was found to be 2%. Also, the IC50 at hNAMPT protein was below 100 nM. Moreover, on hNAMPT protein (compound concentration 1 μM), the inhibition at 1 µM is above 99%.

Turning to `Cn1ccc(-c2nc3ccc(C(=O)NCCCn4ccnc4)cc3nc2-c2ccccc2)n1` [Compound I-203, N-[3-(1H-imidazol-1-yl)propyl]-2-(1-methyl-1H-pyrazol-3-yl)-3-phenylquinoxaline-6-carboxamide], the inhibition at 1 µM with PC3 cells is -8%; on hNAMPT protein (compound concentration 1 μM) it was 37%. Besides, the IC50 on hNAMPT protein fell in the range of 1000 to 2000 nM.

Consider `O=C(NCc1cn2cccnc2n1)c1ccc2nc(N3CCC(N4CCOCC4)CC3)c(-c3ccc(F)cc3)nc2c1` [Compound I-204, 3-(4-fluorophenyl)-N-(imidazo[1,2-a]pyrimidin-2-ylmethyl)-2-[4-(morpholin-4-yl)piperidin-1-yl]quinoxaline-6-carboxamide], for which the inhibition at 1.667 µM with PC3 cells turned out to be 63%. The 50% inhibitory concentration (IC50) on hNAMPT protein was below 100 nM. The inhibition at 1 µM on hNAMPT protein (compound concentration 1 μM) is above 99%.

With `CCOC(=O)CCc1ccc(-c2nc3ccc(C(=O)NCCCn4ccnc4)cc3nc2-c2ccccc2)cc1` [Compound I-205, ethyl 3-[4-(6-{[3-(1H-imidazol-1-yl)propyl]carbamoyl}-3-phenylquinoxalin-2-yl)phenyl]propanoate], the inhibition at 1 µM was determined as 104% with PC3 cells and 84% on hNAMPT protein (compound concentration 1 μM). In addition, the IC50 at hNAMPT protein was in the range of 100 to 500 nM.

Take `O=C(NCCCn1ccnc1)c1ccc2nc(N3CCCC3)c(-c3ccccc3)nc2c1` [Compound I-206, N-[3-(1H-imidazol-1-yl)propyl]-3-phenyl-2-(pyrrolidin-1-yl)quinoxaline-6-carboxamide]: the figures for the inhibition at 1 µM with PC3 cells and at hNAMPT protein (compound concentration 1 μM) were -7% and 75%, respectively. For the same compound, at hNAMPT protein, the 50% inhibitory concentration (IC50) was in the range of 100 to 500 nM.

In the case of `CCN(CC)c1nc2ccc(C(=O)NCCCn3ccnc3)cc2nc1-c1ccccc1` [Compound I-207, 2-(diethylamino)-N-[3-(1H-imidazol-1-yl)propyl]-3-phenylquinoxaline-6-carboxamide], the figures for the inhibition at 1 µM with PC3 cells and on hNAMPT protein (compound concentration 1 μM) were -7% and 69%, respectively. Also, the IC50 at hNAMPT protein was 100 to 500 nM.

Consider `O=C(NCCCn1ccnc1)c1ccc2nc(-c3ccc4cc[nH]c4c3)c(-c3ccccc3)nc2c1` [Compound I-208, N-[3-(1H-imidazol-1-yl)propyl]-2-(1H-indol-6-yl)-3-phenylquinoxaline-6-carboxamide], for which the values for the inhibition at 1 µM with PC3 cells and on hNAMPT protein (compound concentration 1 μM) were -6% and 55%, respectively. For the same compound, the IC50 on hNAMPT protein is 500 to 1000 nM.

Take `O=C(NCCCn1ccnc1)c1ccc2nc(-c3cccc(Cl)c3)c(-c3ccccc3)nc2c1` [Compound I-209, 2-(3-chlorophenyl)-N-[3-(1H-imidazol-1-yl)propyl]-3-phenylquinoxaline-6-carboxamide]: the inhibition at 1 µM in the test on PC3 cells is -7%; on hNAMPT protein (compound concentration 1 μM) it was 74%. For the same compound, the IC50 at hNAMPT protein was 100 to 500 nM.

Turning to `O=C(NCCCn1ccnc1)c1ccc2nc(N3CCC(N4CCC(O)CC4)CC3)c(-c3ccccc3)nc2c1` [Compound I-210, 2-(4-hydroxy-1,4′-bipiperidin-1′-yl)-N-[3-(1H-imidazol-1-yl)propyl]-3-phenylquinoxaline-6-carboxamide], the inhibition at 1 µM in the test with PC3 cells is -2%; at hNAMPT protein (compound concentration 1 μM) it was 95%. The IC50 on hNAMPT protein is below 100 nM.

On to `O=C(NCCCc1ncc[nH]1)c1ccc2nc(Cl)c(-c3ccc(F)cc3)nc2c1` [Compound I-211, 2-Chloro-3-(4-fluorophenyl)-N-[3-(1H-imidazol-2-yl)propyl]quinoxaline-6-carboxamide], for which the inhibition at 1.667 µM with PC3 cells was above 99%. Also, the IC50 on hNAMPT protein lay in the range of 100 to 500 nM. Moreover, the inhibition at 1 µM at hNAMPT protein (compound concentration 1 μM) was 79%.

Regarding `O=C(NCCc1ccncc1)c1ccc2nc(-c3ccc(F)cc3)c(-c3ccc(F)cc3)nc2c1` [Compound I-212, 2,3-bis(4-fluorophenyl)-N-[2-(pyridin-4-yl)ethyl]quinoxaline-6-carboxamide], the inhibition at 1 µM in the test on PC3 cells is 101%; on hNAMPT protein (compound concentration 1 μM), 95%. For the same compound, the IC50 on hNAMPT protein is below 100 nM.

For `O=C(NCCCc1ncc[nH]1)c1ccc2nc(N3CCC(O)CC3)c(-c3ccc(F)cc3)nc2c1` [Compound I-213, 3-(4-fluorophenyl)-2-(4-hydroxypiperidin-1-yl)-N-[3-(1H-imidazol-2-yl)propyl]quinoxaline-6-carboxamide], the inhibition at 1.667 µM in the test on PC3 cells is 2%. Besides, the IC50 on hNAMPT protein is below 100 nM. Besides, at hNAMPT protein (compound concentration 1 μM), the inhibition at 1 µM came to 99%.

In the case of `Cc1ccc(-c2nc3ccc(C(=O)NCCCn4ccnc4)cc3nc2-c2ccc(C)cc2)cc1` [Compound I-214, N-[3-(1H-imidazol-1-yl)propyl]-2,3-bis(4-methylphenyl)quinoxaline-6-carboxamide], the inhibition at 1 µM amounted to 0% with PC3 cells and 40% on hNAMPT protein (compound concentration 1 μM). Besides, the IC50 at hNAMPT protein lay in the range of 1000 to 2000 nM.

Consider `Cn1ccc(-c2nc3cc(C(=O)NCCCn4ccnc4)ccc3nc2-c2ccccc2)n1` [Compound I-215, N-[3-(1H-imidazol-1-yl)propyl]-3-(1-methyl-1H-pyrazol-3-yl)-2-phenylquinoxaline-6-carboxamide], for which the inhibition at 1 µM in the test with PC3 cells was determined as 19%; on hNAMPT protein (compound concentration 1 μM), 15%. Besides, on hNAMPT protein, the IC50 was 2000 to 10000 nM.

With `O=C(NCCCc1ncc[nH]1)c1ccc2nc(OC3CCCCC3)c(-c3ccc(Cl)cc3)nc2c1` [Compound I-216, 3-(4-chlorophenyl)-2-(cyclohexyloxy)-N-[3-(1H-imidazol-2-yl)propyl]quinoxaline-6-carboxamide], the inhibition at 1.667 µM in the test with PC3 cells is 3%. The IC50 at hNAMPT protein is below 100 nM. For the same compound, the inhibition at 1 µM on hNAMPT protein (compound concentration 1 μM) came out at 91%.
